PMC2800825 (Biochemistry, 2009)
Residue numbers refer to the chain shown, from its start. Values joined by “and” are separate entries in the source; they are usually repeats but may differ in a detail not shown here. Identical values can stand only once. Like-named read-outs stand apart in the source and are kept apart here.

Tests used:
[1] = target: T1, Thr247Ala mutant E. coli DHOD (Escherichia coli, UniProt P0A7E1, T247A); details: protio-DHO vs 5,5,6-^2H3 DHO, pH 8.5, 4 °C
[2] = target: T2, Asn111Asp mutant E. coli DHOD (Escherichia coli, UniProt P0A7E1, N111D); details: protio-DHO vs 5,5,6-^2H3 DHO, pH 8.5, 4 °C
[3] = target: T3, Asn111Ala mutant E. coli DHOD (Escherichia coli, UniProt P0A7E1, N111A); details: protio-DHO vs 5,5,6-^2H3 DHO, pH 8.5, 4 °C
[4] = target: T4, Asn246Ala mutant E. coli DHOD (Escherichia coli, UniProt P0A7E1, N246A); details: protio-DHO vs 5,5,6-^2H3 DHO, pH 8.5, 4 °C
wild-type E. coli DHOD [5] = target: T5, wild-type E. coli DHOD (Escherichia coli, UniProt P0A7E1); details: cited from earlier work
T5 sequence (P0A7E1 1-336): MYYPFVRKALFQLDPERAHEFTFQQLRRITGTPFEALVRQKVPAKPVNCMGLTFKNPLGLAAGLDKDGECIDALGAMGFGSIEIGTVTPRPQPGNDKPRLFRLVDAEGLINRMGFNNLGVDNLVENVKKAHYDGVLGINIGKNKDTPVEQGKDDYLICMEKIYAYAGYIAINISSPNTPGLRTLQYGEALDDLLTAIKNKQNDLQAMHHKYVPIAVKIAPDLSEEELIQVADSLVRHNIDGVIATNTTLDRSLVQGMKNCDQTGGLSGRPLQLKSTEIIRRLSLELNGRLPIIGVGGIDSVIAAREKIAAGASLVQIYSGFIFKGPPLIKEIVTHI

[6] = target: T6, Asn177Ala mutant E. coli DHOD (Escherichia coli, UniProt P0A7E1, N177A); assay: Reductive half-reaction with DHO, anaerobic stopped-flow; format: biochemical
[7] = target: T1, Thr247Ala mutant E. coli DHOD; assay: as above; format: biochemical
[8] = target: T4, Asn246Ala mutant E. coli DHOD; assay: as above; format: biochemical
[9] = target: T2, Asn111Asp mutant E. coli DHOD; assay: as above; format: biochemical
[10] = target: T7, Asn172Ala mutant E. coli DHOD (Escherichia coli, UniProt P0A7E1, N172A); assay: as above; format: biochemical
T7 sequence (P0A7E1 1-336 N172A): T5 sequence (P0A7E1 1-336) with N172A

[11] = target: T8, Thr247Ser mutant E. coli DHOD (Escherichia coli, UniProt P0A7E1, T247S); assay: as above; format: biochemical
T8 sequence (P0A7E1 1-336 T247S): T5 sequence (P0A7E1 1-336) with T247S

[12] = target: T9, Asn172Ala/Asn246Ala mutant E. coli DHOD (Escherichia coli, UniProt P0A7E1, N172A/N246A); format: biochemical; details: pH 8.5, footnote b printed, text says examined at 25°
T9 sequence (P0A7E1 1-336 N172A/N246A): T5 sequence (P0A7E1 1-336) with N172A, N246A

[13] = target: T3, Asn111Ala mutant E. coli DHOD; assay: Reductive half-reaction with DHO, anaerobic stopped-flow; format: biochemical
[14] = target: T3, Asn111Ala mutant E. coli DHOD; details: pH 8.5, 25 °C
[15] = target: T2, Asn111Asp mutant E. coli DHOD; details: pH 8.5, 25 °C
[16] = target: T4, Asn246Ala mutant E. coli DHOD; details: pH 8.5, 25 °C
wild-type E. coli DHOD [17] = target: T5, wild-type E. coli DHOD; assay: biochemical
[18] = target: T2, Asn111Asp mutant E. coli DHOD; assay: biochemical
[19] = target: T9, Asn172Ala/Asn246Ala mutant E. coli DHOD; assay: biochemical
[20] = target: T6, Asn177Ala mutant E. coli DHOD; assay: biochemical
[21] = target: T7, Asn172Ala mutant E. coli DHOD; assay: biochemical
[22] = target: T6, Asn177Ala mutant E. coli DHOD; details: pH 8.5, 25 °C
[23] = target: T8, Thr247Ser mutant E. coli DHOD; details: pH 8.5, 25 °C
[24] = target: T4, Asn246Ala mutant E. coli DHOD; assay: biochemical; details: Kd of OA, Asn246Ala oxidized enzyme, pH 8.5, 25 °C
[25] = target: T9, Asn172Ala/Asn246Ala mutant E. coli DHOD; details: pH 8.5, 25 °C
[26] = target: T7, Asn172Ala mutant E. coli DHOD; details: pH 8.5, 25 °C
[27] = target: T1, Thr247Ala mutant E. coli DHOD; details: pH 8.5, 25 °C
[28] = target: T1, Thr247Ala mutant E. coli DHOD; assay: biochemical
[29] = target: T8, Thr247Ser mutant E. coli DHOD; assay: biochemical
[30] = target: T3, Asn111Ala mutant E. coli DHOD; assay: biochemical

T6 sequence (P0A7E1 whole entry N177A): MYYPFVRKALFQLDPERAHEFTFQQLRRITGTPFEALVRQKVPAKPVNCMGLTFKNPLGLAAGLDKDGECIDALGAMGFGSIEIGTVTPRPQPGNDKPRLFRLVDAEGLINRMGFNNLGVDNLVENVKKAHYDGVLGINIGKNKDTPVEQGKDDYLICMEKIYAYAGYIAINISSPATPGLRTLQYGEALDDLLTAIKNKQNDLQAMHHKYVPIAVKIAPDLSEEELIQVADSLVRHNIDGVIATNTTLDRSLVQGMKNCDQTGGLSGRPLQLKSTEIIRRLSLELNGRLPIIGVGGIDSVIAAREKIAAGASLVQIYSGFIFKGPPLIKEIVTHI
T4 sequence (P0A7E1 whole entry N246A): as the sequence (P0A7E1 whole entry N177A) above, with A177N, N246A counted along it
T1 sequence (P0A7E1 whole entry T247A): as the sequence (P0A7E1 whole entry N177A) above, with A177N, T247A counted along it
T3 sequence (P0A7E1 whole entry N111A): as the sequence (P0A7E1 whole entry N177A) above, with N111A, A177N counted along it
T2 sequence (P0A7E1 whole entry N111D): as the sequence (P0A7E1 whole entry N177A) above, with N111D, A177N counted along it

In the case of `[2H]C1([2H])C(=O)NC(=O)NC1([2H])C(=O)O` (stereo not drawn) [5,5,6-^2H3 DHO], the “KIE ^D(kred/Kd)” value [1] is reported as 6.3 ± 0.4, the “KIE ^D(kred/Kd)” value [2] is reported as 5.3 ± 0.2 and the “KIE ^D(kred/Kd)” value [3] is reported as 5.9 ± 0.3. For the same compound, the “KIE ^D(kred/Kd)” value [4] was 6.3 ± 0.4.
In the case of `O=C1C[C@@H](C(=O)O)NC(=O)N1` [DHO, dihydroorotate], the “kred (reduction rate constant)” value (wild-type E. coli DHOD [5]; pH 8.5, 4 °C) is given as 46 s⁻¹, the Kd (wild-type E. coli DHOD [5]; read-out: Apparent Kd,DHO, pH 8.5, 4 °C) is given as 20 µM and the Kd [6] is given as 22 ± 2 µM. The “fold decrease in reduction rate constant vs wild-type” value ([6]; Asn177Ala) was ~ 800 fold, the “kred (reduction rate constant)” value ([6]; Asn177Ala, pH 8.5, 4 °C) was 0.0586 ± 0.0004 s⁻¹ and the Kd [7] was 198 ± 16 µM. For the same compound, the “fold decrease in reduction rate constant vs wild-type” value ([7]; Thr247Ala) was ~ 8 fold, the “fold increase in Kd of DHO vs wild-type” value ([7]; Thr247Ala) was ~ 10 fold and the “kred (reduction rate constant)” value ([7]; Thr247Ala, pH 8.5, 4 °C) was 5.52 ± 0.09 s⁻¹. The Kd [8] was 47 mM, the “fold decrease in reduction rate constant vs wild-type” value ([8]; Asn246Ala) was ~ 570 fold and the “fold increase in apparent Kd for DHO vs wild-type” value ([8]; Asn246Ala) was ~ 2,000 fold. For the same compound, the “kred (reduction rate constant)” value ([8]; Asn246Ala, pH 8.5, 4 °C) was 0.081 ± 0.002 s⁻¹, the “fold slower reduction rate constant than wild-type” value [9] was ~ 450 fold and the “kred (reduction rate constant)” value ([9]; pH 8.5, 4 °C, estimated) was roughly 0.1 s⁻¹. The Kd [10] was 278 ± 9 µM, the “fold increase in Kd of DHO vs wild-type” value ([10]; Asn172Ala) was ~ 14 fold and the “kred (reduction rate constant)” value ([10]; Asn172Ala, pH 8.5, 4 °C) was 0.00437 ± 0.0002 s⁻¹ and 0.00437 ± 0.00002 s⁻¹. The Kd [11] was 45 ± 5 µM, the “kred (reduction rate constant)” value ([11]; Thr247Ser, pH 8.5, 4 °C) was 58.8 ± 1.1 s⁻¹ and the “observed rate constant of the final phase, independent of DHO concentration” value ([11]; Thr247Ser, pH 8.5, 4 °C) was ~ 0.02 s^−1. For the same compound, the “kred (reduction rate constant)” value [12] was ~0.002 ^b s^−1, the Kd [13] was 1.04 mM and the “fold decrease in kred vs wild-type” value ([13]; Asn111Ala) was ~ 4600 fold. For the same compound, the “fold increase in Kd of DHO vs wild-type” value ([13]; Asn111Ala) was ~ 50 fold and the “kred (reduction rate constant)” value ([13]; Asn111Ala, pH 8.5, 4 °C) was 0.0100 ± 0.0001 s⁻¹.
In the case of `O=C(O)c1cc(=O)[nH]c(=O)[nH]1` [OA, orotate], the “Kd(mutant)/Kd(Wild-Type) for OA” value [14] is reported as 14, the “Kd(mutant)/Kd(Wild-Type) for OA” value [15] is reported as “≫ 22000” and the “Kd(mutant)/Kd(Wild-Type) for OA” value [16] is reported as 150 and 152. The Kd (wild-type E. coli DHOD [17]) was 3.4 ± 0.8 µM, the Kd [18] was greater than 75 mM and the Kd [19] was roughly 50 mM. For the same compound, the Kd [20] was 27.5 ± 1.5 µM, the Kd [21] was 220 ± 9 µM and the “Kd(mutant)/Kd(Wild-Type) for OA” value [22] was 8. The “Kd(mutant)/Kd(Wild-Type) for OA” value [23] was 1.1, the Kd [24] was 520 µM and 518 µM and the “Kd(mutant)/Kd(Wild-Type) for OA” value [25] was ~ 14700. For the same compound, the “Kd(mutant)/Kd(Wild-Type) for OA” value [26] was 65, the “Kd(mutant)/Kd(Wild-Type) for OA” value [27] was 12 and the Kd [28] was 39.3 ± 1.6 µM. The Kd [29] was 3.8 ± 0.5 µM and the Kd [30] was 47.2 ± 0.2 µM.
With `NC(CO)(CO)CO.O=C(O)c1cc(=O)[nH]c(=O)[nH]1` [OA-Tris salt] the solubility in water was “at least 400 mM”.
